US9274101B2 (BIOLOG, Inc., priority 2001, dated 2016)

Tests used:
Format in all cases: cell-based, Escherichia coli
[1] = system: E. coli MG1655
[2] = system: ten strains of E. coli
[3] = system: E. coli MG1655; remark: listed apart in the source

N[C@@H](CSCSC[C@H](N)C(=O)O)C(=O)O [L-djenkolic acid]
suitability as sulfur source (growth, purple color) [1]: positive

N[C@@H](CCC(=O)O)C(=O)O [L-glutamic acid]
carbon source utilization [2]: + and −
carbon source utilization (text) [2]: negative
suitability as nitrogen source (growth, purple color) [3]: positive

CS(=O)(=O)CC[C@H](N)C(=O)O [L-methionine sulfone]
suitability as sulfur source (growth, purple color) [1]: not suitable

C[S+]([O-])CC[C@H](N)C(=O)O (stereo partly drawn) [L-methionine sulfoxide]
suitability as sulfur source (growth, purple color) [1]: positive

O=C(O)[C@@H]1CCCN1 [L-proline]
carbon source utilization [2]: + and −
carbon source utilization (text) [2]: negative
suitability as nitrogen source (growth, purple color) [3]: positive

N[C@@H](CO)C(=O)O [L-serine]
carbon source utilization [2]: +
suitability as nitrogen source (growth, purple color) [3]: not suitable

C[C@@H](O)[C@H](N)C(=O)O [L-threonine]
carbon source utilization [2]: + and −
carbon source utilization (text) [2]: negative
suitability as nitrogen source (growth, purple color) [3]: not suitable

CC(=O)N[C@@H](CS)C(=O)O [N-acetyl cysteine]
suitability as sulfur source (growth, purple color) [1]: not suitable

CC(=O)N[C@H]1C(O)O[C@H](CO)[C@@H](O)[C@@H]1O (stereo partly drawn) [N-acetyl-D-glucosamine]
carbon source utilization [2]: +
suitability as nitrogen source (growth, purple color) [3]: positive

CC(=O)N[C@H]1[C@@H](O)[C@H](O)[C@@H](CO)O[C@H]1O [N-acetyl-β-D-mannosamine]
carbon source utilization [2]: + and −
suitability as nitrogen source (growth, purple color) [3]: not suitable

N[C@H](COP(=O)(O)O)C(=O)O [O-phospho-D-serine]
suitability as phosphorus source (growth, purple color) [1]: positive

N[C@H](Cc1ccc(OP(=O)(O)O)cc1)C(=O)O [O-phospho-D-tyrosine]
suitability as phosphorus source (growth, purple color) [1]: positive

N[C@@H](COP(=O)(O)O)C(=O)O [O-phospho-L-serine]
suitability as phosphorus source (growth, purple color) [1]: positive

NCCc1ccccc1 [Phenylethyl amine]
carbon source utilization [2]: −
suitability as nitrogen source (growth, purple color) [3]: not suitable

NCCc1ccc(O)cc1 [Tyramine]
carbon source utilization [2]: −
suitability as nitrogen source (growth, purple color) [3]: not suitable
